# Assay results from ChEMBL document CHEMBL1201862, “PubChem BioAssay data set” (2004).
#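 Cultured in 96-well plates, cells were exposed to test compound for 48 hours across five concentrations. GI50 is the concentration that inhibits growth by half.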 Calls of active or inactive are those of the source. Cut-off read from the data, not from the text of the source: active = GI50 up to about 1.1 µM and inactive = higher.
# Key:
# Experiment in all cases: inhibition of tumour cell growth, NCI panel, 48 h
# T47D = system: T47D
# SNB-75 = system: SNB-75
# NCI-H522 = system: NCI-H522
# U-251 = system: U-251
# HT-29 = system: HT-29
# A549 = system: A549
# SN12C = system: SN12C
# RPMI-8226 = system: RPMI-8226
# HL-60 = system: HL-60
# OVCAR-8 = system: OVCAR-8
# SNB-19 = system: SNB-19
# SK-MEL-28 = system: SK-MEL-28
# TK-10 = system: TK-10
# ACHN = system: ACHN
# A498 = system: A498
# MCF7 = system: MCF7
# MDA-N = system: MDA-N
# 786-0 = system: 786-0
# SW-620 = system: SW-620
# SK-MEL-5 = system: SK-MEL-5
# EKVX = system: EKVX
# DU-145 = system: DU-145
# NCI/ADR-RES = system: NCI/ADR-RES
# Malme-3M = system: Malme-3M
# OVCAR-3 = system: OVCAR-3
# IGROV-1 = system: IGROV-1
# MDA-MB-231 = system: MDA-MB-231
# HCC 2998 = system: HCC 2998
# OVCAR-4 = system: OVCAR-4
# M14 = system: M14
# OVCAR-5 = system: OVCAR-5
# CAKI-1 = system: CAKI-1
# CCRF-CEM = system: CCRF-CEM
# HOP-92 = system: HOP-92
# NCI-H226 = system: NCI-H226
# NCI-H23 = system: NCI-H23
# MDA-MB-435 = system: MDA-MB-435
# UACC-62 = system: UACC-62
# UO-31 = system: UO-31
# RXF 393 = system: RXF 393
# K562 = system: K562
# SF-268 = system: SF-268
# NCI-H460 = system: NCI-H460
# KM12 = system: KM12
# UACC-257 = system: UACC-257
# PC-3 = system: PC-3
# HCT-15 = system: HCT-15
# LOX IMVI = system: LOX IMVI
# SF-295 = system: SF-295
# HCT-116 = system: HCT-116
# Hs-578T = system: Hs-578T
# SF-539 = system: SF-539
# HOP-62 = system: HOP-62
# SR = system: SR
# MOLT-4 = system: MOLT-4
# SK-MEL-2 = system: SK-MEL-2
# COLO 205 = system: COLO 205
smiles,measurement,setting,value
COC(=O)c1c(C)cccc1C1CN=NC12Cc1ccc(C)cc1C2=O (configuration not stated),GI50,T47D,17.1 µM (inactive)
same,GI50,SNB-75,57.5 µM (inactive)
same,GI50,NCI-H522,29.4 µM (inactive)
same,GI50,U-251,41.9 µM (inactive)
same,GI50,HT-29,31.8 µM (inactive)
same,GI50,A549,33.5 µM (inactive)
same,GI50,SN12C,48.4 µM (inactive)
same,GI50,RPMI-8226,25.6 µM (inactive)
same,GI50,HL-60,21.6 µM (inactive)
same,GI50,OVCAR-8,43.2 µM (inactive)
same,GI50,SNB-19,38.1 µM (inactive)
same,GI50,SK-MEL-28,43.4 µM (inactive)
same,GI50,TK-10,> 100 µM (inactive)
same,GI50,ACHN,26.9 µM (inactive)
same,GI50,A498,43.6 µM (inactive)
same,GI50,MCF7,37.2 µM (inactive)
same,GI50,MDA-N,41.4 µM (inactive)
same,GI50,786-0,71.3 µM (inactive)
same,GI50,SW-620,41 µM (inactive)
same,GI50,SK-MEL-5,17.5 µM (inactive)
same,GI50,EKVX,26.7 µM (inactive)
same,GI50,DU-145,49 µM (inactive)
same,GI50,NCI/ADR-RES,23 µM (inactive)
same,GI50,Malme-3M,33.2 µM (inactive)
same,GI50,OVCAR-3,38.6 µM (inactive)
same,GI50,IGROV-1,52 µM (inactive)
same,GI50,MDA-MB-231,47.1 µM (inactive)
same,GI50,HCC 2998,40.9 µM (inactive)
same,GI50,OVCAR-4,48.8 µM (inactive)
same,GI50,M14,38.8 µM (inactive)
same,GI50,OVCAR-5,> 100 µM (inactive)
same,GI50,CAKI-1,> 100 µM (inactive)
same,GI50,CCRF-CEM,32.4 µM (inactive)
same,GI50,HOP-92,23.8 µM (inactive)
same,GI50,NCI-H226,44.4 µM (inactive)
same,GI50,NCI-H23,39.2 µM (inactive)
same,GI50,MDA-MB-435,32.7 µM (inactive)
same,GI50,UACC-62,32.6 µM (inactive)
same,GI50,UO-31,36.1 µM (inactive)
same,GI50,RXF 393,75.9 µM (inactive)
same,GI50,K562,29.8 µM (inactive)
same,GI50,SF-268,50.7 µM (inactive)
same,GI50,NCI-H460,15 µM (inactive)
same,GI50,KM12,47.9 µM (inactive)
same,GI50,UACC-257,49.1 µM (inactive)
same,GI50,PC-3,39.2 µM (inactive)
same,GI50,HCT-15,50.2 µM
same,GI50,LOX IMVI,28.6 µM (inactive)
same,GI50,SF-295,65.9 µM (inactive)
same,GI50,HCT-116,25 µM (inactive)
same,GI50,Hs-578T,39.4 µM (inactive)
same,GI50,SF-539,47 µM (inactive)
same,GI50,HOP-62,52.7 µM (inactive)
same,GI50,SR,40.2 µM (inactive)
same,GI50,MOLT-4,27.4 µM (inactive)
CC1=C/C(=N\N(C)C)C(C(O)(C(F)(F)F)C(F)(F)F)C(C)(C)C1 (configuration not stated),GI50,T47D,> 100 µM (inactive)
same,GI50,SNB-75,27.1 µM (inactive)
same,GI50,NCI-H522,> 100 µM (inactive)
same,GI50,U-251,> 100 µM (inactive)
same,GI50,HT-29,> 100 µM (inactive)
same,GI50,A549,> 100 µM (inactive)
same,GI50,SN12C,> 100 µM (inactive)
same,GI50,RPMI-8226,46.8 µM (inactive)
same,GI50,HL-60,> 100 µM (inactive)
same,GI50,OVCAR-8,> 100 µM (inactive)
same,GI50,SNB-19,> 100 µM (inactive)
same,GI50,SK-MEL-28,> 100 µM (inactive)
same,GI50,SK-MEL-2,> 100 µM (inactive)
same,GI50,TK-10,> 100 µM (inactive)
same,GI50,ACHN,> 100 µM (inactive)
same,GI50,A498,> 100 µM (inactive)
same,GI50,MCF7,> 100 µM (inactive)
same,GI50,MDA-N,> 100 µM (inactive)
same,GI50,786-0,> 100 µM (inactive)
same,GI50,SW-620,> 100 µM (inactive)
same,GI50,SK-MEL-5,80.2 µM (inactive)
same,GI50,EKVX,> 100 µM (inactive)
same,GI50,DU-145,> 100 µM (inactive)
same,GI50,NCI/ADR-RES,> 100 µM (inactive)
same,GI50,Malme-3M,97.1 µM (inactive)
same,GI50,COLO 205,> 100 µM (inactive)
same,GI50,OVCAR-3,26.4 µM (inactive)
same,GI50,IGROV-1,> 100 µM (inactive)
same,GI50,MDA-MB-231,> 100 µM (inactive)
same,GI50,HCC 2998,> 100 µM (inactive)
same,GI50,OVCAR-4,> 100 µM (inactive)
same,GI50,M14,> 100 µM (inactive)
same,GI50,OVCAR-5,> 100 µM (inactive)
same,GI50,CAKI-1,> 100 µM (inactive)
same,GI50,CCRF-CEM,> 100 µM (inactive)
same,GI50,HOP-92,0.169 µM (active)
same,GI50,NCI-H226,> 100 µM (inactive)
same,GI50,NCI-H23,69.7 µM (inactive)
same,GI50,MDA-MB-435,> 100 µM (inactive)
same,GI50,UACC-62,> 100 µM (inactive)
same,GI50,UO-31,> 100 µM (inactive)
same,GI50,RXF 393,> 100 µM (inactive)
same,GI50,K562,> 100 µM (inactive)
same,GI50,SF-268,> 100 µM (inactive)
same,GI50,NCI-H460,> 100 µM (inactive)
same,GI50,KM12,> 100 µM (inactive)
same,GI50,UACC-257,> 100 µM (inactive)
same,GI50,PC-3,73.6 µM (inactive)
same,GI50,HCT-15,> 100 µM
same,GI50,LOX IMVI,> 100 µM (inactive)
same,GI50,SF-295,> 100 µM (inactive)
same,GI50,HCT-116,> 100 µM (inactive)
same,GI50,Hs-578T,72.4 µM (inactive)
same,GI50,SF-539,> 100 µM (inactive)
same,GI50,HOP-62,> 100 µM (inactive)
same,GI50,SR,> 100 µM (inactive)
same,GI50,MOLT-4,97.1 µM (inactive)
